In patent US4434159A, “Pharmaceutical composition for intrarectal administration, and suppository prepared therefrom” (Teijin Limited, priority 1980, dated 1984):

System: blood glucose level
Test: Decrease in blood glucose level after administration of insulin suppositories to rabbits
Format: in vivo
Settings: 0.32 u/kg intramuscularly administered
Protocol: 500 mg of the dispersion was filled into a gelatin capsule for suppositories to form a gelatin capsule suppository. One capsule contained 9.6 units of insulin. In the same manner as above, insulin suppositories were prepared using the other absorption aids shown in Table 4 instead of ascorbic acid. The content (units) of insulin and the amounts of the absorption aids and the base (fractionated coconut oil) were as shown in Table 4. […] Each time, 0.5 ml of the blood was withdrawn from the ear vein. The glucose level of the blood was measured by the glucose oxidase method. Table 4 summarizes the decrease (%) of the blood glucose level from that before the administration.

Substance: Insulin: porcine insulin, intramuscularly administered as comparison
- Decrease (%) in blood glucose level from that before administration (30 minutes): 13.7%
- Decrease (%) in blood glucose level from that before administration (1 hour): 32.6%
- Decrease (%) in blood glucose level from that before administration (2 hours): 36.2%
- Decrease (%) in blood glucose level from that before administration (3 hours): 15.2%
